The record followed here is PubChem BioAssay (NCI).

Values joined by “and” are separate entries in the source; they are usually repeats but may differ in a detail not shown here. Identical values can stand only once.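 Following 48 hours of exposure in 96-well plates, responses at five concentrations were used to interpolate endpoints linearly. GI50 is the concentration that inhibits growth by half. TGI is the concentration that stops growth completely.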 Where only a bound is given, the exact number is not on record here.

For orientation: GI50 means the concentration at which growth is held to half of that of the control. As usually defined, the TGI is the concentration giving total growth inhibition.

What all share (test): DTP human tumour cell line panel, 48 h
Assay [1] deals with ACHN renal.
The subject of assay [2] is CAKI-1 renal.
Assay [3] deals with OVCAR-4 ovarian.
The subject of assay [4] is RPMI-8226 leukemia.
Assay [5] relates to SF-539 CNS.
In assay [6] the test system is SN12C renal.
Assay [7] deals with SW-620 colon.
In assay [8] the test system is T-47D breast.
For assay [9], the system named is HS 578T breast.
Assay [10] concerns SR leukemia.

Regarding `CC(C)c1nc(CN(C)C(=O)N[C@H](C(=O)N[C@@H](Cc2ccccc2)C[C@H](O)[C@H](Cc2ccccc2)NC(=O)OCc2cncs2)C(C)C)cs1`, the GI50 in [1] was 29.1 µM; in assay [2], 31.3 µM; in assay [3], 27.2 µM; in assay [4] it was 7.9 µM; in assay [5] it was 2.33 µM; in assay [6], 20.2 µM. Further, the GI50 in assay [7] was 34.9 µM; in assay [8], 21.7 µM. The TGI was 82.3 µM in [1]; 68.2 µM in assay [2]; over 92.1 µM in assay [3]; 27.7 µM in assay [4]; 49.4 µM in assay [5]; 50.4 µM in assay [6]. Moreover, the TGI is over 100 µM in [7] and 73 µM in assay [8].

Regarding `Nc1nc(Cl)c2ncn(Cc3ccc(C45CC6CC(CC(C6)C4)C5)c(O)c3)c2n1`, the GI50 was 3.35 µM in assay [1]; 1.77 µM in assay [2]; 2.29 µM in [9]; 0.991 µM in assay [3]; 11.8 µM in assay [5]; 2.95 µM in [6]. For the same compound, the GI50 in assay [7] is 2.95 µM; in assay [8] it was 3.75 µM. For the same compound, the TGI in assay [1] was found to be 13.9 µM; in assay [2], 4.8 µM; in assay [9], 12.1 µM; in assay [3] it was 3.82 µM; in [5], 26.7 µM; in assay [6], 13.4 µM. The values for the TGI in assay [7] and in [8] were 13.3 µM and 24.5 µM, respectively.

For `Cn1c2ccccc2c2c(-c3ccccc3)[n+]3ccncc3nc21`, the GI50 in assay [1] was over 100 µM; in assay [2], over 100 µM; in [9], 87.5 µM; in [3], over 100 µM; in assay [4], 36.1 µM; in assay [5] it was 48.3 µM. The GI50 is 48.2 µM in [6], over 100 µM in assay [7] and 55.3 µM in assay [8]. The TGI in [1], in assay [2], in assay [9], in [3], in assay [4] and in assay [5] was over 100 µM in each case. For the same compound, the TGI in assay [6], in [7] and in assay [8] was over 100 µM in each case.

On to `CCc1ccc(/C=C\c2cc(OC)c(OC)c(OC)c2)cc1`, for which the GI50 is 0.0784 µM in assay [1]; 1.02 µM in [2]; 0.0373 µM in assay [4]; 0.0163 µM in assay [5]; 0.0539 µM in assay [6]. Also, the TGI in [1] is 31.8 µM; in assay [2] it was over 100 µM; in assay [9], 0.106 µM; in [3], over 100 µM; in assay [5], 0.0443 µM and 0.0546 µM; in assay [10], 0.336 µM.

On to `C[C@]12CC[C@H]3[C@@H](CC=C4C[C@@H](O)CC[C@@]43C)[C@@H]1CC[C@@H]2N(CCO)CCO`, for which the TGI in assay [1], in [2], in assay [9], in assay [3], in [4] and in [5] was over 100 µM each time. The TGI in assay [6], in assay [7] and in [8] was over 100 µM in each case.

Take `Oc1c(CN2CCC(N3CCCCC3)CC2)cc(Cc2cc(CN3CCC(N4CCCCC4)CC3)c(O)c3ncccc23)c2cccnc12`: the GI50 in assay [1] is 1.4 µM; in [2], 0.941 µM; in assay [9], 4.67 µM; in [3], 0.435 µM; in assay [4] it was 1.86 µM; in assay [6], 1.62 µM. Moreover, the figures for the GI50 in [10], in assay [7] and in [8] were 0.652 µM, 0.726 µM and 0.51 µM, respectively. Besides, the TGI in [1] came out at 11.7 µM; in assay [2] it was 10.2 µM; in assay [9], 28.7 µM; in assay [3], 13.6 µM; in assay [4], 7.22 µM; in [6], 16 µM. Besides, the TGI in assay [10] came out at 3.74 µM; in [7] it was 15.1 µM; in assay [8], 4.8 µM.

Consider `COc1cc([N+](=O)[O-])cc2c3c(n(C)c12)[C@@]1(C)CCC2c4ccc(OCc5ccccc5)cc4CCC2C1C3` (stereo partly specified), for which the GI50 is over 100 µM in [1]; 86.6 µM in [2]; over 100 µM in [9]; 61.6 µM in assay [3]; 81.8 µM in [4]; 66.7 µM in assay [5]. For the same compound, the GI50 is over 100 µM in [6], 90.6 µM in [7] and 43.1 µM in assay [8]. The TGI in assay [1], in [2], in assay [9], in [3], in [4] and in assay [5] was over 100 µM each time. In addition, the TGI in [6], in assay [7] and in assay [8] was over 100 µM each time.

`Oc1ccc(CN2CCC(N3CCCCC3)CC2)c2cccnc12`: the GI50 in assay [1] was 5.95 µM; in assay [2] it was 33.8 µM; in assay [9], 17.6 µM; in assay [3], 24.2 µM; in assay [4], 6.33 µM; in assay [6], 8.18 µM. Moreover, the GI50 is 16.7 µM in assay [10], 17 µM in assay [7] and 23.6 µM in [8]. Further, the TGI in assay [1], in assay [2], in assay [9], in assay [3], in [4] and in assay [6] was over 100 µM throughout. For the same compound, the TGI in [10], in [7] and in assay [8] was over 100 µM throughout.

Turning to `COc1ccc(/C=C/c2nccc3ccccc23)cc1OC`, the TGI in assay [1], in assay [2], in assay [9], in [3], in [4] and in [5] was over 10 µM in each case. Moreover, the TGI in [6], in assay [7] and in assay [8] was over 10 µM throughout.

As for `C=CCCCCCCCCC(=O)[O][Sn]([CH2]CCC)([CH2]CCC)[CH2]CCC`, the GI50 is 0.164 µM in [1]; 0.112 µM in assay [2]; 0.166 µM in assay [9]; 0.12 µM in [3]; 0.035 µM in [4]; 0.169 µM in [5]. Also, the GI50 in assay [6] is 0.153 µM; in assay [7], 0.162 µM. For the same compound, the TGI in [1] was determined as 0.31 µM; in [2] it was 0.3 µM; in [9], 0.493 µM; in assay [3] it was 0.251 µM; in assay [4] it was 0.278 µM; in [5], 0.332 µM. In addition, the TGI is 0.331 µM in assay [6] and 0.332 µM in [7].

Regarding `CCC(C)c1c(Cl)nc(Cl)nc1Cl` (stereo unspecified), the TGI in assay [1] was 11.9 µM; in assay [9], over 100 µM; in [3], 46.2 µM; in assay [4], over 100 µM; in assay [5] it was 58.8 µM; in assay [6] it was 85.4 µM. Moreover, in assay [7], the TGI is over 100 µM.

For the compound `CS(=O)(=O)c1ccc([C@H]2O[C@@H](CO)C[C@]2(O)c2ccc(S(C)(=O)=O)cc2)cc1`, the GI50 in [1], in assay [2], in assay [9], in assay [3], in [4] and in assay [5] was over 100 µM each time. Besides, the GI50 in [6], in assay [10] and in assay [7] was over 100 µM each time. For the same compound, the TGI in assay [1], in assay [2], in assay [9], in assay [3], in assay [4] and in [5] was over 100 µM throughout. In addition, the TGI in assay [6], in [10] and in [7] was over 100 µM throughout.

For the compound `CC(C)(CC(=O)Nc1ccccc1)C(=O)O`, the TGI in [1], in assay [2], in assay [3], in assay [4], in assay [5] and in [6] was over 100 µM in each case. Moreover, the concentration for total growth inhibition (TGI) in assay [10], in assay [7] and in assay [8] was over 100 µM each time.

With `N#Cc1ccc(NC(=O)Nc2ccc(Oc3ccc(NC(=O)Nc4ccc(C#N)cc4)cc3)cc2)cc1`, the GI50 in assay [1] was 18.8 µM; in assay [2], 20.8 µM; in assay [9] it was 7.49 µM; in [3] it was 5.65 µM; in assay [4], 0.994 µM; in [5] it was 17.6 µM. The GI50 in assay [6] was 25.3 µM; in [7] it was 26 µM; in [8] it was 0.622 µM. Besides, the TGI in [1] is over 100 µM; in assay [2] it was over 100 µM; in assay [9] it was over 100 µM; in assay [3], over 100 µM; in assay [4], 39.6 µM; in assay [5], 59.4 µM. Also, the figures for the concentration for total growth inhibition (TGI) in assay [6], in [7] and in [8] were over 100 µM, over 100 µM and 31.6 µM, respectively.
